Experimental data reported in patent US8614342B2, “Process for preparing epoxycarboxylic esters” (BASF SE, priority 2012, dated 2013).

Settings: 20° C.

COC(=O)C1CO1 (stereo not shown) [MEP, Methyl Epoxy Propionate]
solubility of MEP in water: 43 g/10 g of H2O
